Assay results as given in patent US5380715A, “Ap4 A as a hypotensive agent” (Fujirebio Inc., priority 1992, dated 1995).

How the values were obtained:
[1] = system: rabbit erythrocytes; assay: Inhibitory effect on rabbit erythrocyte crenation induced by A23187; type: cell-based; details: for Crenation: x ± SE; for inhibition of A23187-induced erythrocyte crenation: result in words
Description: Fresh blood was collected from Japanese white rabbits weighing 2-3 kg. Blood samples were anticoagulated with citric acid (1 ml 3.8% Citric acid solution+10 ml blood). These samples were centrifuged at room temperature for 15 min at 1100 rpm. After centrifugation of the defibrinated blood, the upper cell layers were discarded. The erythrocytes (pellet) were washed 4 times in a medium containing; 56.6 mM Tris-HCl, pH 7.6, 100 mM NaCl, 4.6 mM KCl,0.64 mM MgCl2. The erythrocytes were preincubated with saline solution or Ap4 A at 37° C for 10min and then A23187 1×10^-6 M and CaCl2 5×10^-7 M were added to the Mixture. After incubation at 37° C. for 20 min, the reaction mixture was centrifugated at 1000 rpm for 10 min. The precipitation was fixed by addition of 0.1M cacodylate buffer containing 0.22M sucrose. The number of transforming erythrocytes was counted using a microscope.

[2] = words; cited from earlier work
[3] = system: rabbit mesenteric arteries; details: words; cited from earlier work

Q: For `Nc1ncnc2c1ncn2[C@@H]1O[C@H](COP(=O)(O)OP(=O)(O)OP(=O)(O)OP(=O)(O)OC[C@H]2O[C@@H](n3cnc4c(N)ncnc43)[C@H](O)[C@@H]2O)[C@@H](O)[C@H]1O` [Ap4A, diadenosine 5',5'"-p^1,p^4 -tetraphosphate], which Crenation ([1]; 10^-3 M, P < 0.01 vs control) is on record?
A: 19.2 ± 9.1%

Q: And the Crenation ([1]; 10^-4 M, P < 0.05 vs control)?
A: 37.0 ± 6.4%

Q: What about the Crenation ([1]; 10^-5 M) of the same compound?
A: 49.1 ± 3.9%

Q: What about the inhibition at 1000 µM ([1]; Oryctolagus cuniculus, Erythrocyte, 10^-3 M) of the same compound?
A: 66.1%

Q: And the inhibition at 100 µM ([1]; Oryctolagus cuniculus, Erythrocyte, 10^-4 M)?
A: 34.6%

Q: And the inhibition at 10 µM ([1]; Oryctolagus cuniculus, Erythrocyte, 10^-5 M)?
A: 13.3%

Q: What about the IC50 ([1]; Oryctolagus cuniculus, Erythrocyte, A23187-induced crenation) of the same compound?
A: 300 µM

Q: And the “inhibition of A23187-induced erythrocyte crenation” value [1]?
A: significant inhibitory effect

Q: And the “inhibition of A23187-induced erythrocyte crenation” value ([1]; listed as Ap4 A)?
A: A23187-induced rabbit erythrocyte crenation was inhibited

Q: What about the arrhythmic effect [2] of the same compound?
A: an arrhythmic effect

Q: What about the vasodilating effect [3] of the same compound?
A: a vasodilating effect of rabbit mesenteric arteries
